Tested on: human monocytic cell line U937
Assay: Human U937 cellular necroptosis assay
Assay type: cell-based
Conditions: U-937; U937 cells stimulated with 25 ng/mL human TNFalpha and 25 μM z-VAD-FMK; 22 hr; viability by Cell Titer-Glo 2.0; read-out: hU937 IC50
Procedure, shortened: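 U937 cells (5000/well) driven to necroptosis by 25 ng/mL human TNFalpha plus 25 μM z-VAD-FMK alongside 1:3-diluted compounds, 22 hr at 37° C, 5% CO2. Viability by CellTiter-Glo luminescence; IC50 from four-parameter logistic fit.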

SMILES | IC50 [µM]
Cc1ccn(-c2nc(C(=O)N[C@H]3COc4cc(Cl)cnc4N(C)C3=O)ncc2Cl)n1 [Example 107, (S)-5-chloro-N-(8-chloro-5-methyl-4-oxo-2,3,4,5-tetrahydropyrido [3,2-b]-[1,4]oxazepin-3-yl)-4-(3-methyl-1H-pyrazol-1-yl)-pyrimidine-2-carboxamide] | 0.606
CN1C(=O)[C@@H](NC(=O)c2ncc(Cl)c(-c3ncccc3F)n2)COc2cc(Cl)cnc21 [Example 108, (S)-5-chloro-N-(8-chloro-5-methyl-4-oxo-2,3,4,5-tetrahydropyrido[3,2-b]-[1,4]oxazepin-3-yl)-4-(3-fluoropyridin-2-yl)pyrimidine-2-carboxamide] | 0.121
CN1C(=O)[C@@H](NC(=O)c2ncc(Cl)c(-c3cncc(F)c3)n2)COc2cc(Cl)cnc21 [Example 109, (S)-5-chloro-N-(8-chloro-5-methyl-4-oxo-2,3,4,5-tetrahydropyrido[3,2-b]-[1,4]oxazepin-3-yl)-4-(5-fluoropyridin-3-yl)pyrimidine-2-carboxamide] | 0.0592
Cc1ncc(-c2nc(C(=O)N[C@H]3COc4cc(Cl)cnc4N(C)C3=O)ncc2Cl)cn1 [Example 110, (S)-5-chloro-N-(8-chloro-5-methyl-4-oxo-2,3,4,5-tetrahydropyrido[3,2-b]-[1,4]oxazepin-3-yl)-2′-methyl-[4,5′-bipyrimidine]-2-carboxamide] | 3.56
CN1C(=O)[C@@H](NC(=O)c2ncc(Cl)c(-c3cncnc3)n2)COc2cc(Cl)cnc21 [Example 111, (S)-5-chloro-N-(8-chloro-5-methyl-4-oxo-2,3,4,5-tetrahydropyrido[3,2-b]-[1,4]oxazepin-3-yl)-[4,5′-bipyrimidine]-2-carboxamide] | 0.485
CN1C(=O)[C@@H](NC(=O)c2ncc(Cl)c(-c3cnccn3)n2)COc2cc(Cl)cnc21 [Example 112, (S)-5-chloro-N-(8-chloro-5-methyl-4-oxo-2,3,4,5-tetrahydropyrido[3,2-b]-[1,4]oxazepin-3-yl)-4-(pyrazin-2-yl)pyrimidine-2-carboxamide] | 0.0929
CN1C(=O)[C@@H](NC(=O)c2ncc(Cl)c(-c3cccc4[nH]cnc34)n2)COc2cc(Cl)cnc21 [Example 113, (S)-4-(1H-benzo[d]imidazol-4-yl)-5-chloro-N-(8-chloro-5-methyl-4-oxo-2,3,4,5-tetrahydropyrido[3,2-b]-[1,4]oxazepin-3-yl)pyrimidine-2-carboxamide] | 7.76
CN1C(=O)[C@@H](NC(=O)c2ncc(Cl)c(-c3cccc4[nH]ncc34)n2)COc2cc(Cl)cnc21 [Example 114, (S)-5-chloro-N-(8-chloro-5-methyl-4-oxo-2,3,4,5-tetrahydropyrido[3,2-b]-[1,4]oxazepin-3-yl)-4-(1H-indazol-4-yl)pyrimidine-2-carboxamide] | 0.0631
CN1C(=O)[C@@H](NC(=O)c2ncc(Cl)c(-c3ccn4cnnc4c3)n2)COc2cc(Cl)cnc21 [Example 115, (S)-4-([1,2,4]triazolo[4,3-a]pyridin-7-yl)-5-chloro-N-(8-chloro-5-methyl-4-oxo-2,3,4,5-tetrahydropyrido[3,2-b]-[1,4]oxazepin-3-yl)pyrimidine-2-carboxamide] | 0.33
Cc1cnc(C(=O)N[C@H]2COc3cc(Cl)cnc3N(C)C2=O)nc1-c1ccccc1F [Example 116, (S)-N-(8-chloro-5-methyl-4-oxo-2,3,4,5-tetrahydro-pyrido[3,2-b][1,4]oxazepin-3-yl)-4-(2-fluorophenyl)-5-methylpyrimidine-2-carboxamide] | 0.00842
Cc1cnc(C(=O)N[C@H]2COc3cc(Cl)cnc3N(C)C2=O)nc1-c1cccc(F)c1F [Example 117, (S)-N-(8-chloro-5-methyl-4-oxo-2,3,4,5-tetrahydro-pyrido[3,2-b][1,4]oxazepin-3-yl)-4-(2,3-difluorophenyl)-5-methylpyrimidine-2-carboxamide] | 0.0141
Cc1cnc(C(=O)N[C@H]2COc3cc(Cl)cnc3N(C)C2=O)nc1-c1ccncc1F [Example 120, (S)-N-(8-chloro-5-methyl-4-oxo-2,3,4,5-tetrahydro-pyrido[3,2-b][1,4]oxazepin-3-yl)-4-(3-fluoropyridin-4-yl)-5-methylpyrimidine-2-carboxamide] | 0.134
Cc1cnc(C(=O)N[C@H]2COc3cc(Cl)cnc3N(C)C2=O)nc1-c1ccc(F)cn1 [Example 121, (S)-N-(8-chloro-5-methyl-4-oxo-2,3,4,5-tetrahydro-pyrido[3,2-b][1,4]oxazepin-3-yl)-4-(5-fluoropyridin-2-yl)-5-methylpyrimidine-2-carboxamide] | 0.0302
Cc1cnc(C(=O)N[C@H]2COc3cc(Cl)cnc3N(C)C2=O)nc1-c1cncnc1 [Example 122, (S)-N-(8-chloro-5-methyl-4-oxo-2,3,4,5-tetrahydro-pyrido[3,2-b][1,4]oxazepin-3-yl)-5-methyl-[4,5′-bipyrimidine]-2-carboxamide] | 0.144
Cc1cnc(C(=O)N[C@H]2COc3cc(Cl)cnc3N(C)C2=O)nc1-c1cnccn1 [Example 123, (S)-N-(8-chloro-5-methyl-4-oxo-2,3,4,5-tetrahydro-pyrido[3,2-b][1,4]oxazepin-3-yl)-5-methyl-4-(pyrazin-2-yl)-pyrimidine-2-carboxamide] | 0.0485
Cc1cnc(C(=O)N[C@H]2COc3cc(Cl)cnc3N(C)C2=O)nc1-c1ccc2nccn2c1 [Example 124, (S)-N-(8-chloro-5-methyl-4-oxo-2,3,4,5-tetrahydropyrido[3,2-b][1,4]oxazepin-3-yl)-4-(imidazo[1,2-a]pyridin-6-yl)-5-methylpyrimidine-2-carboxamide] | 0.165
COc1cnc(C(=O)N[C@H]2COc3cc(Cl)cnc3N(C)C2=O)nc1-c1ccccc1 [Example 125, (S)-N-(8-chloro-5-methyl-4-oxo-2,3,4,5-tetrahydro-pyrido[3,2-b][1,4]oxazepin-3-yl)-5-methoxy-4-phenylpyrimidine-2-carboxamide] | 0.128
CN1C(=O)[C@@H](NC(=O)c2ncc(CO)c(-c3ccccc3)n2)COc2cc(Cl)cnc21 [Example 126, (S)-N-(8-chloro-5-methyl-4-oxo-2,3,4,5-tetrahydro-pyrido[3,2-b][1,4]oxazepin-3-yl)-5-(hydroxymethyl)-4-phenylpyrimidine-2-carboxamide] | 0.03
CN1C(=O)[C@@H](NC(=O)c2ncc(S(C)(=N)=O)c(-c3ccccc3)n2)COc2cc(Cl)cnc21 (stereo partly drawn) [Example 127, N-((S)-8-chloro-5-methyl-4-oxo-2,3,4,5-tetrahydro-pyrido[3,2-b][1,4]oxazepin-3-yl)-5-(S-methylsulfonimidoyl)-4-phenylpyrimidine-2-carboxamide] | 3.95
CN1C(=O)[C@@H](NC(=O)c2ncc(Cl)c(-c3cccc(F)c3)n2)COc2cc(C#N)ccc21 [Example 128, (S)-5-chloro-N-(8-cyano-5-methyl-4-oxo-2,3,4,5-tetrahydrobenzo[b]-[1,4]oxazepin-3-yl)-4-(3-fluorophenyl)pyrimidine-2-carboxamide] | 0.0162
CN1C(=O)[C@@H](NC(=O)c2ncc(Cl)c(-c3ccc(F)cc3)n2)COc2cc(C#N)ccc21 [Example 129, (S)-5-chloro-N-(8-cyano-5-methyl-4-oxo-2,3,4,5-tetrahydrobenzo[b]-[1,4]oxazepin-3-yl)-4-(4-fluorophenyl)pyrimidine-2-carboxamide] | 0.0138
CN1C(=O)[C@@H](NC(=O)c2ncc(Cl)c(-c3cc(F)ccc3F)n2)COc2cc(C#N)ccc21 [Example 130, (S)-5-chloro-N-(8-cyano-5-methyl-4-oxo-2,3,4,5-tetrahydrobenzo[b]-[1,4]oxazepin-3-yl)-4-(2,5-difluorophenyl)pyrimidine-2-carboxamide] | 0.0161
CN1C(=O)[C@@H](NC(=O)c2ncc(Cl)c(-c3ccc(Cl)cc3)n2)COc2cc(C#N)ccc21 [Example 131, (S)-5-chloro-4-(4-chlorophenyl)-N-(8-cyano-5-methyl-4-oxo-2,3,4,5-tetrahydrobenzo[b]-[1,4]oxazepin-3-yl)pyrimidine-2-carboxamide] | 0.0221
Cc1ccc(-c2nc(C(=O)N[C@H]3COc4cc(C#N)ccc4N(C)C3=O)ncc2Cl)cc1F [Example 132, (S)-5-chloro-N-(8-cyano-5-methyl-4-oxo-2,3,4,5-tetrahydrobenzo[b]-[1,4]oxazepin-3-yl)-4-(3-fluoro-4-methylphenyl)pyrimidine-2-carboxamide] | 0.0202
Cc1cnc(C(=O)N[C@H]2COc3cc(C#N)ccc3N(C)C2=O)nc1C12CCC(CC1)CC2 [Example 133, (S)-4-(bicyclo[2.2.2]octan-1-yl)-N-(8-cyano-5-methyl-4-oxo-2,3,4,5-tetrahydrobenzo[b]-[1,4]oxazepin-3-yl)-5-methylpyrimidine-2-carboxamide] | 0.16
Cc1cnc(C(=O)N[C@H]2COc3cc(C#N)ccc3N(C)C2=O)nc1C1CCOCC1 [Example 134, (S)-N-(8-cyano-5-methyl-4-oxo-2,3,4,5-tetrahydrobenzo[b]-[1,4]oxazepin-3-yl)-5-methyl-4-(tetrahydro-2H-pyran-4-yl)-pyrimidine-2-carboxamide] | 0.246
Cc1cnc(C(=O)N[C@H]2COc3cc(C#N)ccc3N(C)C2=O)nc1-c1cccc(F)c1 [Example 135, (S)-N-(8-cyano-5-methyl-4-oxo-2,3,4,5-tetrahydrobenzo[b]-[1,4]oxazepin-3-yl)-4-(3-fluorophenyl)-5-methylpyrimidine-2-carboxamide] | 0.0176
Cc1cnc(C(=O)N[C@H]2COc3cc(C#N)ccc3N(C)C2=O)nc1-c1ccc(F)cc1 [Example 136, (S)-N-(8-cyano-5-methyl-4-oxo-2,3,4,5-tetrahydrobenzo[b]-[1,4]oxazepin-3-yl)-4-(4-fluorophenyl)-5-methylpyrimidine-2-carboxamide] | 0.0143
Cc1ccc(-c2nc(C(=O)N[C@H]3COc4cc(C#N)ccc4N(C)C3=O)ncc2C)cc1 [Example 137, (S)-N-(8-cyano-5-methyl-4-oxo-2,3,4,5-tetrahydrobenzo[b]-[1,4]oxazepin-3-yl)-5-methyl-4-(p-tolyl)pyrimidine-2-carboxamide] | 0.0188
